Results reported in US20230148599A1, “FUNGICIDAL MIXTURES CONTAINING PYRAZOLE DERIVATIVES” (FMC Corporation, priority 2020, published 2023).

System: Septoria tritici
Test: Test A: wheat leaf blotch, preventive spray on wheat seedlings
Assay type: in vivo
Settings: 50 ppm, 100 = 100% disease control, 0 = no control
Procedure, shortened: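 Preventive test: one day after spraying seedlings to run-off (concentrations in ppm; acetone/water, 250 ppm PEG400), Septoria tritici spores applied. Scored after 48 h humid incubation at 24 °C plus 17 days at 20 °C, as percent disease control versus untreated controls (100 = full control).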

SMILES	Test A disease control rating
COc1cc(F)c(-c2c(C)nn(C)c2Nc2ccc(F)cc2[N+](=O)[O-])c(F)c1 [compound 83]	99%
COc1cc(F)c(-c2c(C)nn(C)c2Nc2c(F)cc(F)cc2[N+](=O)[O-])c(F)c1 [compound 84]	100%
COc1cc(F)c(Nc2c(-c3ccc(F)cc3Cl)c(C)nn2C)c([N+](=O)[O-])c1 [compound 85]	100%
COc1cc(F)c(-c2c(C)nn(C)c2Nc2c(F)cc(Cl)cc2[N+](=O)[O-])c(F)c1 [compound 86]	100%
Cc1ccc(Nc2c(-c3ccc(F)cc3Br)c(C)nn2C)c([N+](=O)[O-])c1 [compound 90]	100%
Cc1nn(C)c(Nc2ccc(Br)cc2[N+](=O)[O-])c1-c1ccc(F)cc1Cl [compound 91]	99%
Cc1nn(C)c(Nc2ccc(Cl)cc2[N+](=O)[O-])c1-c1ccc(F)cc1Cl [compound 92]	100%
Cc1nn(C)c(Nc2ccc(OC(F)(F)F)cc2[N+](=O)[O-])c1-c1ccc(F)cc1Cl [compound 94]	73%
CCc1nn(C)c(Nc2c(F)cc(F)cc2[N+](=O)[O-])c1-c1ccc(F)cc1Cl [compound 95]	100%
Cc1nn(C)c(Nc2c(Cl)cc(Cl)cc2[N+](=O)[O-])c1-c1c(F)cccc1F [compound 96]	100%
COc1cc(F)c(Nc2c(-c3c(F)cccc3F)c(C)nn2C)c([N+](=O)[O-])c1 [compound 97]	100%

System: Puccinia recondita f. sp. tritici
Test: Test B: wheat leaf rust, preventive spray on wheat seedlings
Assay type: in vivo
Settings: 50 ppm, 100 = 100% disease control, 0 = no control
Procedure, shortened: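 Preventive test: compound in acetone/water 50/50 with 250 ppm PEG400 was sprayed onto wheat seedlings one day before inoculation with leaf rust spores. After 24 h in saturated air and 7 days in a growth chamber, both at 20 °C, disease control was scored from 0 to 100 against controls.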

SMILES	Test B disease control rating
COc1cc(F)c(-c2c(C)nn(C)c2Nc2ccc(F)cc2[N+](=O)[O-])c(F)c1 [compound 83]	91%
COc1cc(F)c(-c2c(C)nn(C)c2Nc2c(F)cc(F)cc2[N+](=O)[O-])c(F)c1 [compound 84]	100%
COc1cc(F)c(Nc2c(-c3ccc(F)cc3Cl)c(C)nn2C)c([N+](=O)[O-])c1 [compound 85]	100%
COc1cc(F)c(-c2c(C)nn(C)c2Nc2c(F)cc(Cl)cc2[N+](=O)[O-])c(F)c1 [compound 86]	100%
Cc1ccc(Nc2c(-c3ccc(F)cc3Br)c(C)nn2C)c([N+](=O)[O-])c1 [compound 90]	95%
Cc1nn(C)c(Nc2ccc(Br)cc2[N+](=O)[O-])c1-c1ccc(F)cc1Cl [compound 91]	88%
Cc1nn(C)c(Nc2ccc(Cl)cc2[N+](=O)[O-])c1-c1ccc(F)cc1Cl [compound 92]	96%
Cc1nn(C)c(Nc2ccc(OC(F)(F)F)cc2[N+](=O)[O-])c1-c1ccc(F)cc1Cl [compound 94]	0%
CCc1nn(C)c(Nc2c(F)cc(F)cc2[N+](=O)[O-])c1-c1ccc(F)cc1Cl [compound 95]	100%
Cc1nn(C)c(Nc2c(Cl)cc(Cl)cc2[N+](=O)[O-])c1-c1c(F)cccc1F [compound 96]	95%
COc1cc(F)c(Nc2c(-c3c(F)cccc3F)c(C)nn2C)c([N+](=O)[O-])c1 [compound 97]	100%

System: Blumeria graminis f. sp. tritici
Test: Test C: wheat powdery mildew, preventive spray on wheat seedlings
Assay type: in vivo
Settings: 50 ppm, 100 = 100% disease control, 0 = no control
Procedure, shortened: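 Preventive test: inoculation with spore dust came one day after spraying seedlings to run-off with ppm suspensions in acetone/water (50/50) plus 250 ppm PEG400 surfactant. Visual ratings after 8 days' incubation at 20° C give percent disease control relative to controls.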

SMILES	Test C disease control rating
COc1cc(F)c(-c2c(C)nn(C)c2Nc2ccc(F)cc2[N+](=O)[O-])c(F)c1 [compound 83]	99%
COc1cc(F)c(-c2c(C)nn(C)c2Nc2c(F)cc(F)cc2[N+](=O)[O-])c(F)c1 [compound 84]	99%
COc1cc(F)c(Nc2c(-c3ccc(F)cc3Cl)c(C)nn2C)c([N+](=O)[O-])c1 [compound 85]	97%
COc1cc(F)c(-c2c(C)nn(C)c2Nc2c(F)cc(Cl)cc2[N+](=O)[O-])c(F)c1 [compound 86]	98%
Cc1ccc(Nc2c(-c3ccc(F)cc3Br)c(C)nn2C)c([N+](=O)[O-])c1 [compound 90]	87%
Cc1nn(C)c(Nc2ccc(Br)cc2[N+](=O)[O-])c1-c1ccc(F)cc1Cl [compound 91]	84%
Cc1nn(C)c(Nc2ccc(Cl)cc2[N+](=O)[O-])c1-c1ccc(F)cc1Cl [compound 92]	89%
Cc1nn(C)c(Nc2ccc(OC(F)(F)F)cc2[N+](=O)[O-])c1-c1ccc(F)cc1Cl [compound 94]	72%
CCc1nn(C)c(Nc2c(F)cc(F)cc2[N+](=O)[O-])c1-c1ccc(F)cc1Cl [compound 95]	100%
Cc1nn(C)c(Nc2c(Cl)cc(Cl)cc2[N+](=O)[O-])c1-c1c(F)cccc1F [compound 96]	0%
COc1cc(F)c(Nc2c(-c3c(F)cccc3F)c(C)nn2C)c([N+](=O)[O-])c1 [compound 97]	100%

System: Phakopsora pachyrhizi
Test: Test D: Asian soybean rust, preventive spray on soybean seedlings
Assay type: in vivo
Settings: 50 ppm, 100 = 100% disease control, 0 = no control
Procedure, shortened: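 Compounds in acetone/water (50/50) with 250 ppm PEG400, dosed in ppm, sprayed to run-off on soybean seedlings; inoculated with P. pachyrhizi spores next day. Held 24 h at 22 °C in saturated air, then 8 days at 22 °C; visual rating of disease control, 0–100, relative to untreated controls.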

SMILES	Test D disease control rating
COc1cc(F)c(-c2c(C)nn(C)c2Nc2ccc(F)cc2[N+](=O)[O-])c(F)c1 [compound 83]	0%
COc1cc(F)c(-c2c(C)nn(C)c2Nc2c(F)cc(F)cc2[N+](=O)[O-])c(F)c1 [compound 84]	48%
COc1cc(F)c(Nc2c(-c3ccc(F)cc3Cl)c(C)nn2C)c([N+](=O)[O-])c1 [compound 85]	96%
COc1cc(F)c(-c2c(C)nn(C)c2Nc2c(F)cc(Cl)cc2[N+](=O)[O-])c(F)c1 [compound 86]	77%
Cc1ccc(Nc2c(-c3ccc(F)cc3Br)c(C)nn2C)c([N+](=O)[O-])c1 [compound 90]	0%
Cc1nn(C)c(Nc2ccc(Br)cc2[N+](=O)[O-])c1-c1ccc(F)cc1Cl [compound 91]	0%
Cc1nn(C)c(Nc2ccc(Cl)cc2[N+](=O)[O-])c1-c1ccc(F)cc1Cl [compound 92]	0%
Cc1nn(C)c(Nc2ccc(OC(F)(F)F)cc2[N+](=O)[O-])c1-c1ccc(F)cc1Cl [compound 94]	73%
CCc1nn(C)c(Nc2c(F)cc(F)cc2[N+](=O)[O-])c1-c1ccc(F)cc1Cl [compound 95]	84%
Cc1nn(C)c(Nc2c(Cl)cc(Cl)cc2[N+](=O)[O-])c1-c1c(F)cccc1F [compound 96]	0%
COc1cc(F)c(Nc2c(-c3c(F)cccc3F)c(C)nn2C)c([N+](=O)[O-])c1 [compound 97]	96%

System: Botrytis cinerea
Test: Test E: tomato Botrytis, preventive spray on tomato seedlings
Assay type: in vivo
Settings: 50 ppm, 100 = 100% disease control, 0 = no control
Procedure, shortened: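 Preventive test: seedlings sprayed to run-off with compound in acetone/water (50/50) plus 250 ppm PEG400, inoculated one day later with B. cinerea spores. Held 48 h saturated at 20° C, then 3 days at 24° C; disease control scored visually from 0 to 100 versus controls.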

SMILES	Test E disease control rating
COc1cc(F)c(-c2c(C)nn(C)c2Nc2ccc(F)cc2[N+](=O)[O-])c(F)c1 [compound 83]	98%
COc1cc(F)c(-c2c(C)nn(C)c2Nc2c(F)cc(F)cc2[N+](=O)[O-])c(F)c1 [compound 84]	90%
COc1cc(F)c(Nc2c(-c3ccc(F)cc3Cl)c(C)nn2C)c([N+](=O)[O-])c1 [compound 85]	94%
COc1cc(F)c(-c2c(C)nn(C)c2Nc2c(F)cc(Cl)cc2[N+](=O)[O-])c(F)c1 [compound 86]	96%
Cc1ccc(Nc2c(-c3ccc(F)cc3Br)c(C)nn2C)c([N+](=O)[O-])c1 [compound 90]	99%
Cc1nn(C)c(Nc2ccc(Br)cc2[N+](=O)[O-])c1-c1ccc(F)cc1Cl [compound 91]	99%
Cc1nn(C)c(Nc2ccc(Cl)cc2[N+](=O)[O-])c1-c1ccc(F)cc1Cl [compound 92]	100%
Cc1nn(C)c(Nc2ccc(OC(F)(F)F)cc2[N+](=O)[O-])c1-c1ccc(F)cc1Cl [compound 94]	0%
CCc1nn(C)c(Nc2c(F)cc(F)cc2[N+](=O)[O-])c1-c1ccc(F)cc1Cl [compound 95]	99%
Cc1nn(C)c(Nc2c(Cl)cc(Cl)cc2[N+](=O)[O-])c1-c1c(F)cccc1F [compound 96]	80%
COc1cc(F)c(Nc2c(-c3c(F)cccc3F)c(C)nn2C)c([N+](=O)[O-])c1 [compound 97]	100%

System: Alternaria solani
Test: Test F: tomato early blight, preventive spray on tomato seedlings
Assay type: in vivo
Settings: 50 ppm, 100 = 100% disease control, 0 = no control
Procedure, shortened: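 Preventive test: one day after the compound spray, seedlings were inoculated with A. solani, incubated saturated at 27 °C for 48 h, then kept at 20 °C for 3 days. Test suspensions contained acetone/water 50/50 with 250 ppm PEG400 surfactant. Visual ratings run from 0 (no control) to 100 (full control).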

SMILES	Test F disease control rating
COc1cc(F)c(-c2c(C)nn(C)c2Nc2ccc(F)cc2[N+](=O)[O-])c(F)c1 [compound 83]	99%
COc1cc(F)c(-c2c(C)nn(C)c2Nc2c(F)cc(F)cc2[N+](=O)[O-])c(F)c1 [compound 84]	99%
COc1cc(F)c(Nc2c(-c3ccc(F)cc3Cl)c(C)nn2C)c([N+](=O)[O-])c1 [compound 85]	98%
COc1cc(F)c(-c2c(C)nn(C)c2Nc2c(F)cc(Cl)cc2[N+](=O)[O-])c(F)c1 [compound 86]	99%
Cc1ccc(Nc2c(-c3ccc(F)cc3Br)c(C)nn2C)c([N+](=O)[O-])c1 [compound 90]	9%
Cc1nn(C)c(Nc2ccc(Br)cc2[N+](=O)[O-])c1-c1ccc(F)cc1Cl [compound 91]	26%
Cc1nn(C)c(Nc2ccc(Cl)cc2[N+](=O)[O-])c1-c1ccc(F)cc1Cl [compound 92]	79%
Cc1nn(C)c(Nc2ccc(OC(F)(F)F)cc2[N+](=O)[O-])c1-c1ccc(F)cc1Cl [compound 94]	9%
CCc1nn(C)c(Nc2c(F)cc(F)cc2[N+](=O)[O-])c1-c1ccc(F)cc1Cl [compound 95]	99%
Cc1nn(C)c(Nc2c(Cl)cc(Cl)cc2[N+](=O)[O-])c1-c1c(F)cccc1F [compound 96]	0%
COc1cc(F)c(Nc2c(-c3c(F)cccc3F)c(C)nn2C)c([N+](=O)[O-])c1 [compound 97]	99%
